Test results as given in PubChem BioAssay AID256 (DTP/NCI, 2004).
Inconclusive results and toxic doses are left out. How the source made its calls: active means survival T/C of 150% or more; inactive means T/C below 125% in these data.

Test system: CD2F1 mice, L1210 leukemia ip, survival T/C
Assay: NCI In Vivo Anticancer Drug Screen. Data for tumor model L1210 Leukemia (intraperitoneal) in CD2F1 (CDF1) mice
Details: endpoint: mean survival time, higher = longer survival
In short: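 Transplantable tumor in mice; compound-treated vs vehicle-treated groups. Read-out = treated/control ratio of the measured endpoint.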

[1] = dose: 100.0 mg/kg/injection, schedule: Q01DX009 (ip), vehicle: saline with Tween-80
[2] = dose: 100.0 mg/kg/injection, schedule: Q04DX003 (ip), vehicle: saline with Tween-80
[3] = dose: 200.0 mg/kg/injection, schedule: Q01DX009 (ip), vehicle: saline with Tween-80
[4] = dose: 200.0 mg/kg/injection, schedule: Q04DX003 (ip), vehicle: saline with Tween-80
[5] = dose: 400.0 mg/kg/injection, schedule: Q01DX009 (ip), vehicle: saline with Tween-80
[6] = dose: 400.0 mg/kg/injection, schedule: Q04DX003 (ip), vehicle: saline with Tween-80
[7] = dose: 25.0 mg/kg/injection, schedule: Q01DX009 (ip), vehicle: saline with Tween-80
[8] = dose: 50.0 mg/kg/injection, schedule: Q01DX009 (ip), vehicle: saline with Tween-80
[9] = dose: 100.0 mg/kg/injection, schedule: Q01DX001 (ip), vehicle: saline with Tween-80
[10] = dose: 200.0 mg/kg/injection, schedule: Q01DX001 (ip), vehicle: saline with Tween-80
[11] = dose: 400.0 mg/kg/injection, schedule: Q01DX001 (ip), vehicle: saline with Tween-80
[12] = dose: 75.0 mg/kg/injection, schedule: Q01DX001 (ip), vehicle: saline
[13] = dose: 50.0 mg/kg/injection, schedule: Q04DX002 (ip), vehicle: saline with Tween-80
[14] = dose: 100.0 mg/kg/injection, schedule: Q04DX002 (ip), vehicle: saline with Tween-80

Measured: T/C

CCOC(=O)CCCCCSc1nn(C2OC(COC(=O)c3ccccc3)C(OC(=O)c3ccccc3)C2OC(=O)c2ccccc2)c(=O)[nH]c1=O (configuration not stated)
inactive: dose: 12.5 mg/kg/injection, schedule: Q01DX005 (ip), vehicle: distilled water + Tween-80 101 % of control | dose: 25.0 mg/kg/injection, schedule: Q01DX005 (ip), vehicle: distilled water + Tween-80 107 % of control | dose: 50.0 mg/kg/injection, schedule: Q01DX005 (ip), vehicle: distilled water + Tween-80 95 % of control | dose: 100.0 mg/kg/injection, schedule: Q01DX005 (ip), vehicle: distilled water + Tween-80 106 % of control | dose: 200.0 mg/kg/injection, schedule: Q01DX005 (ip), vehicle: distilled water + Tween-80 107 % of control

Cc1ccc(S(=O)(=O)/C=C(\I)c2ccccc2)cc1
inactive: [1] 91 % of control | [2] 96 % of control | [3] 94 % of control | [4] 96 % of control | [5] 94 % of control | [6] 93 % of control

NC(=O)SCCCCl
inactive: [1] 103 % of control | dose: 118.0 mg/kg/injection, schedule: Q01DX009 (ip), vehicle: saline with Tween-80 106 % of control | dose: 178.0 mg/kg/injection, schedule: Q01DX009 (ip), vehicle: saline with Tween-80 112 % of control | [3] 113 % of control | dose: 266.0 mg/kg/injection, schedule: Q01DX009 (ip), vehicle: saline with Tween-80 124 % of control

N#CCC(C#N)N1CCOCC1 (configuration not stated)
inactive: [7] 98 % of control | [8] 102 % of control | [1] 102 % of control

O=C1C=C(Nc2ccccc2)CCC1
inactive: [1] 94 % of control | [3] 100 % of control | [5] 97 % of control

Cc1c(C)c(OC(=O)c2ccccc2)c(Br)c(C)c1OC(=O)c1ccccc1
inactive: [9] 91 % of control | [1] 100 % of control | [10] 100 % of control | [3] 100 % of control | [11] 100 % of control | [5] 100 % of control

Nc1cc(C(Br)(Br)Br)nc2ccccc12
inactive: [12] 103 % of control

O=C(O)CCC(=O)NNC(=O)c1cccnc1
inactive: dose: 25.0 mg/kg/injection, schedule: Q04DX002 (ip), vehicle: saline with Tween-80 107 % of control | [13] 104 % of control | [9] 106 % of control | [14] 107 % of control | [10] 106 % of control | [11] 98 % of control

O=C(Nc1ccccc1O)/C(Cl)=C/Cl
inactive: [1] 104 % of control

Cc1cc(O)c2c(c1)C(=O)C=CC2=O
inactive: dose: 0.12 mg/kg/injection, schedule: Q01DX009 (ip), vehicle: other 102 % of control | dose: 0.25 mg/kg/injection, schedule: Q01DX009 (ip), vehicle: other 108 % of control | dose: 0.5 mg/kg/injection, schedule: Q01DX009 (ip), vehicle: other 97 % of control | dose: 1.0 mg/kg/injection, schedule: Q01DX009 (ip), vehicle: other 93 % of control | dose: 2.0 mg/kg/injection, schedule: Q01DX009 (ip), vehicle: other 97 % of control

C=C1C(C)C2C(Cc3ccccc3)NC(=O)C23C(OC(C)=O)C=CC(C)(O)C(=O)C(C)C/C=C/C3C1O (configuration not stated)
inactive: dose: 0.63 mg/kg/injection, schedule: Q01DX009 (ip), vehicle: Klucel (hydroxypropylcellulose) (HPC) 101 % of control | dose: 1.25 mg/kg/injection, schedule: Q01DX009 (ip), vehicle: Klucel (hydroxypropylcellulose) (HPC) 101 % of control | dose: 2.5 mg/kg/injection, schedule: Q01DX009 (ip), vehicle: Klucel (hydroxypropylcellulose) (HPC) 95 % of control | dose: 5.0 mg/kg/injection, schedule: Q01DX009 (ip), vehicle: Klucel (hydroxypropylcellulose) (HPC) 98 % of control

CSC(=NC#N)SC
inactive: dose: 3.13 mg/kg/injection, schedule: Q01DX001 (ip), vehicle: Klucel (hydroxypropylcellulose) (HPC) 101 % of control | dose: 6.25 mg/kg/injection, schedule: Q01DX001 (ip), vehicle: Klucel (hydroxypropylcellulose) (HPC) 104 % of control

O=S1(=O)CCC1
inactive: [12] 114 % of control | dose: 150.0 mg/kg/injection, schedule: Q01DX001 (ip), vehicle: saline 97 % of control | dose: 300.0 mg/kg/injection, schedule: Q01DX001 (ip), vehicle: saline 105 % of control

CN(C)C(=N)N(C)C
inactive: [7] 98 % of control | [8] 95 % of control | [1] 87 % of control | dose: 100.0 mg/kg/injection, schedule: Q04DX003 (ip), vehicle: saline sonified 101 % of control

CC(C)(OC(=O)C(NC=O)C(C)(C)S)OC(=O)C(NC=O)C(C)(C)S (configuration not stated)
inactive: [1] 101 % of control | [3] 101 % of control | [5] 101 % of control

COc1ccc(-c2cc(C(=O)N/N=C/c3ccc([N+](=O)[O-])cc3)c3ccc(C)cc3n2)cc1OC
inactive: [1] 93 % of control | [3] 106 % of control | [5] 108 % of control

Cc1ccc(CNc2ccc(I)cc2)cc1
inactive: [2] 93 % of control | [4] 88 % of control | [6] 86 % of control

O=C(Cl)C12CC3CC(CC(C3)C1)C2
inactive: dose: 12.5 mg/kg/injection, schedule: Q01DX009 (ip), vehicle: other 94 % of control | dose: 25.0 mg/kg/injection, schedule: Q01DX009 (ip), vehicle: other 94 % of control | dose: 50.0 mg/kg/injection, schedule: Q01DX009 (ip), vehicle: other 91 % of control | dose: 100.0 mg/kg/injection, schedule: Q01DX009 (ip), vehicle: other 91 % of control

C/C(=N\Nc1ccc([N+](=O)[O-])cc1[N+](=O)[O-])c1ccc[nH]1
inactive: [1] 87 % of control | [2] 95 % of control | [3] 97 % of control | [4] 95 % of control | [5] 93 % of control | [6] 91 % of control

O=C(O)C(C(=O)O)C1C=CCC1 (configuration not stated)
inactive: [13] 98 % of control | [14] 102 % of control | dose: 200.0 mg/kg/injection, schedule: Q04DX002 (ip), vehicle: saline with Tween-80 87 % of control | dose: 400.0 mg/kg/injection, schedule: Q04DX002 (ip), vehicle: saline with Tween-80 87 % of control
